Data from patent US9738636B2, “Fused heterocyclic compounds as selective BMP inhibitors” (Vanderbilt University, priority 2012, dated 2017).

Tested on: BMP4
Experiment: BMP4 cell assay (BMP reporter)
Type: cell-based
Conditions: series of scaffold drawing 183 (R, R1)

IC50: 6.1 µM
Compound: c1cc(-c2cnc3cc(-c4ccc5c(c4)OCCO5)ccn23)ccn1 [Example 6, 7-(2,3-dihydrobenzo[b][1,4]dioxin-6-yl)-3-(pyridin-4-yl)imidazo[1,2-a]pyridine]
